Results taken from US11980774B2, “Illumination devices and related methods for phototherapeutic light treatments in the presence of vitamins” (priority 2021, dated 2024).
“Also recorded” adds a separate entry of the source. Like-named read-outs stand apart in the source and are kept apart here.

Experiments:
[1] = tested on: human coronavirus OC43 (HCoV-OC43); test: 425 nm light inhibition of HCoV-OC43 in the presence of vitamins in artificial saliva, virus titer (PFU/mL); format: cell-based; details: 10 μM RFN in artificial saliva, doses as low as 7.5 J/cm^2 (up to 45 J/cm^2), FIG. 1B
Excerpt: FIGS. 1A to 1D are provided in the context of HCoV-OC43, which is generally known as one of the viruses associated with the common cold. FIG. 1A is a chart illustrating an experimental control where light treatments were applied to HCoV-OC43 samples in the absence of any vitamins. […] A first sample included HCoV-OC43 in only its corresponding media, and the other two samples further included different artificial saliva sources (labeled as Saliva 1 and Saliva 2 in FIG. 1A).
FIG. 1B is a chart illustrating light treatments on HCoV-OC43 samples where various amounts of riboflavin (abbreviated as RFN) were diluted in a same type of artificial saliva and added to the HCoV-OC43 samples.
FIG. 1C is a chart illustrating light treatments on HCoV-OC43 samples where various amounts of ascorbate (abbreviated as AA) and 10 μM of RFN were diluted in a same type of artificial saliva and added to the HCoV-OC43 samples. […] The constant amount of RFN (10 μM) was selected based on the improvements illustrated in FIG. 1B.
FIG. 1D is a chart illustrating light treatments on HCoV-OC43 samples where various amounts of ascorbate were diluted in a same type of artificial saliva and added to the HCoV-OC43 samples in the absence of riboflavin.

[2] = tested on: human rhinovirus 1B; format: cell-based
[3] = tested on: influenza B; details: 10 μM riboflavin; 425 nm light 30 J/cm^2; FIG. 6F
[4] = tested on: MERS-CoV; format: cell-based; details: 1 μM riboflavin with various amounts of ascorbate in artificial saliva; 425 nm light 15 J/cm^2; FIG. 4B
[5] = tested on: influenza A; format: cell-based; details: for reduction in viral loads of influenza A: 425 nm light 30 J/cm^2

Cc1cc2nc3c(=O)[nH]c(=O)nc-3n(C[C@H](O)[C@H](O)[C@H](O)CO)c2cc1C [riboflavin]
change in HCoV-OC43 viral load compared with the 0 μM RFN sample [1]: significant decreases | reduction in viral loads of human rhinovirus 1B ([2]; 10 μM riboflavin with various ascorbate in Saliva 2, 425 nm light 32 J/cm^2, FIG. 5B): some reduction | influence on viral loads of human rhinovirus 1B ([2]; 0.1, 1, 10 μM RFN in Saliva 1, 425 nm light up to 30 J/cm^2, FIG. 5A): little to no influence | reduction in viral loads of influenza B [3]: dramatic reduction | reductions in viral loads of MERS-CoV [4]: greater than 99.999% | inhibition in viral load of influenza A by riboflavin dosing alone ([5]; 0 J/cm^2 (no light), 0.1-10 μM riboflavin, FIG. 6E): some inhibition | reduction in viral loads of influenza A ([5]; 1 μM riboflavin, FIG. 6E): some reduction | reduction in viral loads of influenza A ([5]; 10 μM riboflavin, FIG. 6E): substantial reduction; also recorded: dramatic reduction | change in viral loads of influenza A ([5]; 10 μM riboflavin, 425 nm light 32 J/cm^2, FIG. 6D): dramatic decreases
